pEC50: −log10 of the molar value.
How the values were obtained:
HBV [1] = assay: Effect on intrahepatic HBV DNA levels in HepG2.2.15 cells (EC50); format: cell-based; settings: Hepatitis B virus, 144 h, 6 days, intrahepatic HBV DNA by qPCR, read-out: Anti-HBV DNA (EC50)
Experimental: HepG2.2.15 cells were treated with compounds, at various concentrations in 10% FCS containing medium, at 37° C. for three days. After that the medium was removed and fresh medium containing the compound was added to the cells for another 3 days. After 6 days of treatment, intrahepatic HBV DNA from cell lysates were isolated. Then qPCR reaction of DNA was performed to measure total HBV DNA levels using specific primer set. The fifty-percent effective concentrations (EC50) for HBV DNA inhibition, relative to no drug controls, was determined using nonlinear fitting curve model. EC50 ranges for HBV DNA inhibition were as follows: A>0.3 μM, B=0.05-0.3 μM, C<0.05 μM (Table B).

HBV [2] = assay: In vitro anti-HBV activity in HepG2.2.15 cell line (intracellular HBV DNA by qPCR at 1 μM); format: cell-based; settings: Hepatitis B virus, 144 h; HepG2.2.15 cells, 1 μM compound, 6 days, intracellular HBV DNA as percentage compared to vehicle control (0.5% DMSO)
Method in brief: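 Intracellular HBV DNA was quantified by qPCR and given as percent of vehicle (0.5% DMSO), grouped into letter ranges. Stably transfected HepG2.2.15 cells had 6 days of exposure to 1 μM compound, with medium and compound renewed after day 3.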

HBV core protein (Cp149) = biological target: T1, HBV core protein (Cp149) (Hepatitis B virus genotype D subtype ayw, UniProt P03146); assay: HBV capsid assembly by size exclusion chromatography (SEC); format: biochemical; settings: 50 μM compound, 15 μM Cp149, 16 hours at 21° C.
T1 construct: HBV core C-terminally truncated protein (HBV Cp149); made in house

[3] = Cytotoxicity (MTT) in HepG2.2.15 cells; format: cell-based; settings: human, 6 days treatment, read-out: HepG2.1.15 cytotoxicity (CC50)
Experimental: HepG2.2.15 cells were seeded onto 96-well culture plate and allowed to adhere for 24 hours. The cells were treated with various concentrations of the compounds for 6 days. After treatment, the culture media were discarded and further incubated with serum-free media containing […] of 3-(4,5-dimethylthiazol-2-yl)-2,5-diphenyl tetrazolium bromide (MTT) for 2 hour. The resulting formazan crystals were completely dissolved in dimethyl sulfoxide (DMSO), and then measured absorbance at 570 nm using microplate reader. The concentrations of compounds producing 50% cell death (CC50) were determined from a fitting of concentration-response curve (% cell viability versus concentration) to a four-parameter equation.

T1 sequence (P03146 1-149): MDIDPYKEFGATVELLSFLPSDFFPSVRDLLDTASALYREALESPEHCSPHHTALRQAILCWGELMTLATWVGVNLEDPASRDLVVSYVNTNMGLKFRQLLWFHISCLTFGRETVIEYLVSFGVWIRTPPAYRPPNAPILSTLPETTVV

Work on `O=C(Nc1ccc(F)c(Cl)c1)[C@H]1CCN(C(=O)c2[nH]c3ccccc3c2Cl)C1` [Example 41, (S)-1-(3-chloro-1H-indole-2-carbonyl)-N-(3-chloro-4-fluoro-phenyl)pyrrolidine-3-carboxamide] yielded a pEC50 (HBV [1]) of 6.52 to 7.30 and an activity at 1 µM (HBV [2]) of less than 45%.
In the case of `N#Cc1c(C(=O)N2CC[C@H](C(=O)Nc3cc(F)c(F)c(F)c3)C2)[nH]c2ccccc12` [Example 45, (S)-1-(3-cyano-1H-indole-2-carbonyl)-N-(3,4,5-trifluorophenyl)pyrrolidine-3-carboxamide], the “Size of induced capsids based on SEC retention times” value (shortened to “Size of induced capsids based”) (HBV core protein (Cp149)) was “induced capsids similar in size to NVR 3-778” and the activity at 1 µM (HBV [2]) was 60 to 70%.
In the case of `O=C(Nc1cc(F)c(F)c(F)c1)[C@H]1CCN(C(=O)c2ccc(Cl)[nH]2)C1` [Example 52, (S)-1-(5-chloro-1H-pyrrole-2-carbonyl)-N-(3,4,5-trifluorophenyl)pyrrolidine-3-carboxamide], the “Size of induced capsids based” value (HBV core protein (Cp149)) was “induced capsids similar in size to NVR 3-778” and the activity at 1 µM (HBV [2]) was 70 to 80%.
For `C[C@H]1[C@@H](C(=O)Nc2ccc(F)c(C#N)c2)CCN1C(=O)c1ccc(Cl)[nH]1` [Example 65, (2S,3S)-1-(5-chloro-1H-pyrrole-2-carbonyl)-N-(3-cyano-4-fluorophenyl)-2-methylpyrrolidine-3-carboxamide], the CC50 at 6 days [3] was greater than 25000 nM, the pEC50 (HBV [1]) was 6.52 to 7.30 and the activity at 1 µM (HBV [2]) was less than 45%.
Work on `C[C@H]1[C@@H](C(=O)Nc2cc(F)c(F)c(F)c2)CCN1C(=O)c1nc2cccnc2[nH]1` [Example 70, (2S,3S)-1-(3H-imidazo[4,5-b]pyridine-2-carbonyl)-2-methyl-N-(3,4,5-trifluorophenyl)pyrrolidine-3-carboxamide] yielded a CC50 at 6 days [3] greater than 25000 nM, a pEC50 (HBV [1]) of 6.52 to 7.30 and an activity at 1 µM (HBV [2]) of 45 to 60%.
Work on `Cc1ncnc(C)c1-c1ccc(C(=O)N2CC[C@H](C(=O)Nc3cc(F)c(F)c(Cl)c3)C2)[nH]1` [Example 100, (S)—N-(3-chloro-4,5-difluorophenyl)-1-(5-(4,6-dimethylpyrimidin-5-yl)-1H-pyrrole-2-carbonyl)pyrrolidine-3-carboxamide] yielded a CC50 at 6 days [3] of 10000 to 25000 nM, a pEC50 (HBV [1]) greater than 7.30 and an activity at 1 µM (HBV [2]) of less than 45%.
With `Cc1n[nH]c(C)c1-c1ccc(C(=O)N2CC[C@H](C(=O)Nc3ccc(F)c(Cl)c3)[C@@H]2C)[nH]1` [Example 105, (2S,3S)—N-(3-chloro-4-fluorophenyl)-1-(5-(3,5-dimethyl-1H-pyrazol-4-yl)-1H-pyrrole-2-carbonyl)-2-methylpyrrolidine-3-carboxamide] the CC50 at 6 days [3] was less than 10000 nM, the pEC50 (HBV [1]) was greater than 7.30 and the activity at 1 µM (HBV [2]) was less than 45%.
For `Cc1cnnc(C)c1-c1ccc(C(=O)N2CC[C@H](C(=O)Nc3ccc(F)c(C#N)c3)[C@@H]2C)[nH]1` [Example 116, (2S,3S)—N-(3-cyano-4-fluorophenyl)-1-(5-(3,5-dimethylpyridazin-4-yl)-1H-pyrrole-2-carbonyl)-2-methylpyrrolidine-3-carboxamide], the CC50 at 6 days [3] was greater than 25000 nM, the pEC50 (HBV [1]) was 6.52 to 7.30 and the activity at 1 µM (HBV [2]) was 45 to 60%.
Molecule `Cc1cc(NC(=O)[C@H]2CCN(C(=O)c3ccc(-c4c(C)cnnc4C)[nH]3)C2)ccc1F` [Example 117, (S)-1-(5-(3,5-dimethylpyridazin-4-yl)-1H-pyrrole-2-carbonyl)-N-(4-fluoro-3-methylphenyl)pyrrolidine-3carboxamide] has a CC50 at 6 days [3] greater than 25000 nM, a pEC50 (HBV [1]) greater than 7.30 and an activity at 1 µM (HBV [2]) of 45 to 60%.
Work on `Cc1cc[nH]c(=O)c1-c1ccc(C(=O)N2CC[C@H](C(=O)Nc3ccc(F)c(Cl)c3)[C@@H]2C)[nH]1` [Example 119, (2S,3S)—N-(3-chloro-4-fluorophenyl)-2-methyl-1-(5-(4-methyl-2-oxo-1,2-dihydropyridin-3-yl)-1H-pyrrole-2-carbonyl)pyrrolidine-3-carboxamide] yielded a CC50 at 6 days [3] greater than 25000 nM, a pEC50 (HBV [1]) of 6.52 to 7.30 and an activity at 1 µM (HBV [2]) of less than 45%.
In the case of `Cc1ncc(-c2ccc(C(=O)N3CC[C@H](C(=O)Nc4ccc(F)c(Cl)c4)[C@@H]3C)[nH]2)cn1` [Example 127, (2S,3S)—N-(3-chloro-4-fluorophenyl)-2-methyl-1-(5-(2-methylpyrimidin-5-yl)-1H-pyrrole-2-carbonyl)pyrrolidine-3-carboxamide], the pEC50 (HBV [1]) was 6.52 to 7.30 and the activity at 1 µM (HBV [2]) was less than 45%.
With `Cc1c(-c2ccc(C(=O)N3CC[C@H](C(=O)Nc4cc(F)c(F)c(F)c4)C3)[nH]2)cnc2[nH]ccc12` [Example 129, (S)-1-(5-(4-methyl-1H-pyrrolo[2,3-b]pyridin-5-yl)-1H-pyrrole-2-carbonyl)-N-(3,4,5-trifluorophenyl)pyrrolidine-3-carboxamide] the “Size of induced capsids based” value (HBV core protein (Cp149)) was “induced capsids similar in size to NVR 3-778” and the activity at 1 µM (HBV [2]) was less than 45%.
With `Cc1ncnc(C)c1-c1ccc2cc(C(=O)N3CC[C@H](C(=O)Nc4cc(F)c(F)c(F)c4)C3)[nH]c2c1` [Example 132, (S)-1-(6-(4,6-dimethylpyrimidin-5-yl)-1H-indole-2-carbonyl)-N-(3,4,5-trifluorophenyl) pyrrolidine-3-carboxamide] the “Size of induced capsids based” value (HBV core protein (Cp149)) was “induced capsids similar in size to NVR 3-778” and the activity at 1 µM (HBV [2]) was 45 to 60%.
In the case of `Cc1ncnc(C)c1-c1ccc2c(Cl)c(C(=O)N3CC[C@H](C(=O)Nc4cc(F)c(F)c(F)c4)C3)[nH]c2c1` [Example 133, (S)-1-(3-chloro-6-(4,6-dimethylpyrimidin-5-yl)-1H-indole-2-carbonyl)-N-(3,4,5-trifluorophenyl)pyrrolidine-3-carboxamide], the “Size of induced capsids based” value (HBV core protein (Cp149)) was “capsid retention times between BAY 41-4109 and NVR 3-778” and the activity at 1 µM (HBV [2]) was 45 to 60%.
With `Cc1ncnc(C)c1-c1ccc2c(Cl)c(C(=O)N3CC[C@H](C(=O)Nc4ccc(F)c(C#N)c4)C3)[nH]c2c1` [Example 135, (S)-1-(3-chloro-6-(4,6-dimethylpyrimidin-5-yl)-1H-indole-2-carbonyl)-N-(3-cyano-4-fluorophenyl)pyrrolidine-3-carboxamide] the pEC50 (HBV [1]) was 6.52 to 7.30, the “Size of induced capsids based” value (HBV core protein (Cp149)) was “capsid retention times between BAY 41-4109 and NVR 3-778” and the activity at 1 µM (HBV [2]) was less than 45%.
With `Cc1nccnc1-c1ccc2c(Cl)c(C(=O)N3CC[C@H](C(=O)Nc4ccc(F)c(C#N)c4)C3)[nH]c2c1` [Example 139, (S)-1-(3-chloro-6-(3-methylpyrazin-2-yl)-1H-indole-2-carbonyl)-N-(3-cyano-4-fluorophenyl) pyrrolidine-3-carboxamide] the “Size of induced capsids based” value (HBV core protein (Cp149)) was “capsid retention times between BAY 41-4109 and NVR 3-778” and the activity at 1 µM (HBV [2]) was less than 45%.
In the case of `C[C@H]1[C@@H](C(=O)Nc2ccc(F)c(C#N)c2)CCN1C(=O)c1[nH]c2cc(-c3cn[nH]c3)ccc2c1Cl` [Example 141, (2S,3S)-1-(3-chloro-6-(1H-pyrazol-4-yl)-1H-indole-2-carbonyl)-N-(3-cyano-4-fluorophenyl)-2-methylpyrrolidine-3-carboxamide], the “Size of induced capsids based” value (HBV core protein (Cp149)) was “capsid retention times between BAY 41-4109 and NVR 3-778” and the activity at 1 µM (HBV [2]) was less than 45%.
`Cn1cc(-c2ccc(C(=O)N3CC[C@H](C(=O)Nc4cc(F)c(F)c(F)c4)C3)[nH]2)c2ccncc21` [Example 158, (S)-1-(5-(1-methyl-1H-pyrrolo[2,3-c]pyridin-3-yl)-1H-pyrrole-2-carbonyl)-N-(3,4,5-trifluorophenyl)pyrrolidine-3-carboxamide] showed an activity at 1 µM (HBV [2]) of 60 to 70%.
With `Cc1cc(NC(=O)[C@@H]2CN(C(=O)c3[nH]c4ccccc4c3Cl)C[C@H]2C)ccc1F` [Example 167, (3S,4S)-1-(3-chloro-1H-indole-2-carbonyl)-N-(4-fluoro-3-methylphenyl)-4-methylpyrrolidine-3-carboxamide] the activity at 1 µM (HBV [2]) was 45 to 60%.
Work on `Cc1cc(NC(=O)[C@@H]2CN(C(=O)c3ccc(-c4c(C)ncnc4C)[nH]3)C[C@H]2C)ccc1F` [Example 168, (3S,4S)-1-(5-(4,6-dimethylpyrimidin-5-yl)-1H-pyrrole-2-carbonyl)-N-(4-fluoro-3-methylphenyl)-4-methylpyrrolidine-3-carboxamide] yielded an activity at 1 µM (HBV [2]) of 45 to 60%.
Molecule `Cc1cc(NC(=O)[C@@H]2CN(C(=O)c3ccc(-c4c(C)n[nH]c4C)[nH]3)C[C@H]2C)ccc1F` [Example 169, (3S,4S)-1-(5-(3,5-dimethyl-1H-pyrazol-4-yl)-1H-pyrrole-2-carbonyl)-N-(4-fluoro-3-methylphenyl)-4-methylpyrrolidine-3-carboxamide] has an activity at 1 µM (HBV [2]) of less than 45%.
`Cc1ncnc(C)c1-c1ccc(C(=O)N2CC[C@H](C(=O)Nc3ccc(F)c(C4CC4)c3)[C@@H]2C)[nH]1` [Example 170, (2S,3S)—N-(3-cyclopropyl-4-fluorophenyl)-1-(5-(4,6-dimethylpyrimidin-5-yl)-1H-pyrrole-2-carbonyl)-2-methylpyrrolidine-3-carboxamide] showed an activity at 1 µM (HBV [2]) of less than 45%.
